Measured values from patent US20230097157A1, “Bicyclic Pyridin-2-one and pyrimidin-4-one Derivatives Useful As a Factor XIa Inhibitors” (Janssen Pharmaceutica NV, priority 2021, published 2023).
Like-named read-outs stand apart in the source and are kept apart here.

Key:
Factor XIa = Factor XIa (Homo sapiens, UniProt P03951); assay: Factor XIa inhibition assay (FLINT) utilizing a fluorophore-quencher pair peptide substrate 5Fam-[…]-K5Tamra; assay type: biochemical; conditions: kinetic (KIN) reads; values in nM; read-out: FXIa KIN Inh IC50
Sequence of Factor XIa (P03951 388-625 limits assumed): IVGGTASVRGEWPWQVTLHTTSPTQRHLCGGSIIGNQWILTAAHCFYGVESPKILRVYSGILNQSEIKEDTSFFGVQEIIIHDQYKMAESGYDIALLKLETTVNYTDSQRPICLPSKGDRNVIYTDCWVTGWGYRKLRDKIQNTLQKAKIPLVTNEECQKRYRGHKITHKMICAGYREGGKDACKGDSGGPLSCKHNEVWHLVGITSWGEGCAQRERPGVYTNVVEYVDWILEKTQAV
Sequence of Factor XIa (P03951 19-387 partner limits assumed): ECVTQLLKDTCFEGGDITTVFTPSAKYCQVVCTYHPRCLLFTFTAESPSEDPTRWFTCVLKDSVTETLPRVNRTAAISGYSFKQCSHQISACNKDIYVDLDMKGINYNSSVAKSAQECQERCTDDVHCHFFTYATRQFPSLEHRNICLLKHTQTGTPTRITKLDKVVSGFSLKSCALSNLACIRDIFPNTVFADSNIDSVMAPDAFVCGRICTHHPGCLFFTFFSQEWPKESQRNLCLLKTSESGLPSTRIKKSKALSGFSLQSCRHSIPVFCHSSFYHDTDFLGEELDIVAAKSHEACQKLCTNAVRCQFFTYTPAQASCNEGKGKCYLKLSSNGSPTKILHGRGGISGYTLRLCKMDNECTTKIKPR
Excerpt: Biological Example 1: Factor XIa Inhibition Assay Utilizing a Fluorophore-Quencher Pair Peptide Substrate A fluorescence intensity (FLINT) based assay was used to monitor inhibition of Factor XIa. The peptide substrate, 5Fam-[…]-K5Tamra (purchased from New England Peptide) was chosen based on the FXI sequence. Conversion of zymogen FXI to its activated form, FXIa, occurs by proteolytic cleavage by […] at two sites, Arg146 and Arg180. The custom peptide used in this assay was based on the Arg146 cleavage site of FXI. The peptide substrate was designed with a fluorophore-quencher pair, where the fluorescence is quenched until FXIa cleaves the 8-mer peptide after the Arg residue.
The Factor XIa FLINT assay was used with the following 5Fam-[…]-K5Tamra assay buffer: 50 mM Tris, pH 7.5, 100 mM NaCl, 5 mM CaCl2, 0.1 mg/mL BSA, 0.03% CHAPS. Assay buffer was prepared by mixing all ingredients fresh. 5Fam-[…]-K5Tamra peptide substrate was first prepared at 10 mM in 100% DMSO, then diluted to 3 mM in 100% DMSO. Assay buffer was then added directly to the 3 mM stock of substrate to prepare the 30 μM 2× working concentration (15 μM final concentration). The 2× Factor XIa stock solution was prepared by diluting 6.562 μM stock in 1× assay buffer for a […].
Test compound(s) were run in an 11-point, 3-fold serial dilution with a final top compound concentration of 100 nM. Final DMSO in assay was 2%. FXIa was preincubated with compound for 30-minutes and then substrate was added to initiate the reaction. The assay was run with kinetic (KIN) reads at 5 min intervals over 30 minutes. […] More specifically, the assay was run as follows: • 100 nL of 0.01 mM test compound was dispensed into black 384-well non-binding Greiner BioOne 784900 plate for 0.1 μM final concentration; • 5 μL of 1× assay buffer was dispensed to column 24 (low control) and 5 μL 2× Factor XIa solution was dispensed to columns 1-23 (column 23 high control); • the plate was centrifuged with a “cover” plate at 500 rpm for 1 min • the plate was pre-incubated for 30 minutes at room temperature with plate covered; • 5 μL of 2×5Fam-[…]-K5Tamra peptide substrate was dispensed into the entire plate, columns 1-24; • the plate was centrifuged with a “cover” plate at 500 rpm for 1 min; • the plate was read monitoring fluorescence intensity on the BMG PHERAStar at room temperature, using fluorescence module 485 nm/520 nm.
(§1) Percent inhibition (IC50) curves were generated per compound tested, and data was analyzed using a 4-parameter logistic fit using GeneData Screener. The relative fluorescence unit (RFU) values were normalized to percent inhibition using the following equation:
% inhibition=((HC−LC)−(compound−LC)/(HC−LC))*100 where LC−low control=mean signal of no Factor XIa or 100% inhibition of Factor XIa; HC−high control=mean signal of Factor XIa+5Fam-[…]-K5Tamra peptide substrate with DMSO only.
(§2) An 11-point dose response curve for the test compound(s) was generated using GENDATA to determine IC50 value based on the following equation:
Y=Bottom+(Top−Bottom)/(1+10^((log IC50−X)*HillSlope)) where Y is the % inhibition in the presence of X inhibitor concentration, Top=high control=mean signal of Factor XIa+5Fam-[…]-K5Tamra peptide substrate with DMSO only; Bottom=low control−mean signal of no Factor XIa or 100% inhibition of Factor XIa; HillSlope−Hill coefficient; and IC50=concentration of compound with 50% inhibition in relation to top/high control.

human plasma kallikrein = human plasma kallikrein (Homo sapiens, UniProt P03952); assay: Kallikrein inhibition assay (FLINT) utilizing a quenched AMC peptide substrate Z-Gly-Pro-Arg-AMC; assay type: biochemical; conditions: kinetic (KIN) reads, read-out: Kallikrein KIN Inh IC50
Sequence of human plasma kallikrein (P03952 391-638 limits assumed): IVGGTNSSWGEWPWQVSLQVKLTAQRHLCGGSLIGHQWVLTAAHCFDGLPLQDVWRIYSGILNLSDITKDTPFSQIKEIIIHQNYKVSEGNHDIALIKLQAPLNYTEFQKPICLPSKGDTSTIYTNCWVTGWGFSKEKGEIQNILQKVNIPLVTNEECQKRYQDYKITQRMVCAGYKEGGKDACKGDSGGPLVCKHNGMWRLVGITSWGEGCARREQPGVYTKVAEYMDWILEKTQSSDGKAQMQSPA
Sequence of human plasma kallikrein (P03952 20-390 partner limits assumed): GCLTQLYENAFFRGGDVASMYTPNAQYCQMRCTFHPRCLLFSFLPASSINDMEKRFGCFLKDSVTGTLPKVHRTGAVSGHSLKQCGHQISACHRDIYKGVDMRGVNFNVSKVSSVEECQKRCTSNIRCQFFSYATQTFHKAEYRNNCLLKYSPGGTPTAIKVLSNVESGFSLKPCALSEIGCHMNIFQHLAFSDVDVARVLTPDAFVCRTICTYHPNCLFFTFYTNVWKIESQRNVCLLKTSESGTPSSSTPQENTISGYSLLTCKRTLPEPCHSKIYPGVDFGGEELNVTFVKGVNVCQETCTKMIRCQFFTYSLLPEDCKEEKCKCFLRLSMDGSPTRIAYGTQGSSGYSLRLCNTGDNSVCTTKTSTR
Excerpt: Biological Example 2: Kallikrein Inhibition Assay Utilizing a Quenched AMC Peptide Substrate A fluorescence intensity (FLINT) based assay was used to monitor inhibition of human plasma kallikrein. The peptide substrate, Z-Gly-Pro-Arg-AMC (Purchased from Bachem; Catalog #I-1150) was chosen based on its relatively low KM for kallikrein which enables running the assay at lower substrate concentrations to control background fluorescence.
The Kallikrein FLINT assay was used with the following Z-Gly-Pro-Arg-AMC assay buffer: 50 mM Tris, pH 7.5, 100 mM NaCl, 5 mM CaCl2, 0.1 mg/mL BSA, 0.03% CHAPS. Assay buffer was prepared by mixing all ingredients fresh. 2× Z-Gly-Pro-Arg-AMC peptide substrate was prepared by diluting 10 mM stock into 1× assay buffer for a 100 μM working concentration (50 μM final concentration). The 2× kallikrein stock solution was prepared by diluting 14.76 μM stock in 1× assay buffer for a 4 nM working stock solution (2 nM final concentration).
Test compound(s) were run in an 11-point, 3-fold serial dilution with a final top compound concentration of 1 μM. Final DMSO in assay was 2%. Plasma kallikrein was pre-incubated for 30-minute with compound and then 50 μM substrate was added to initiate the reaction. The assay was run with kinetic (KIN) reads at 5 min intervals over 30 minutes. The time course was linear using 2 nM kallikrein greater than 30 minutes. More specifically, the assay was run as follows: • 100 nL of 0.1 mM test compound was dispensed into black 384-well non-binding Greiner BioOne 784900 plate for 1 μM final concentration; • 5 μL of 1× assay buffer was dispensed to columns 24 (low control) and 5 μL 2× human kallikrein enzyme solution was dispensed to columns 1-23 (column 23 high control); • the plate was centrifuged with a “cover” plate at 500 rpm for 1 min • the plate was pre-incubated for 30 minutes at room temperature with plate covered; • 5 μL of 2× Z-Gly-Pro-Arg-AMC peptide substrate was dispensed into the entire plate, columns 1-24; • the plate was centrifuged with a “cover” plate at 500 rpm for 1 min; • the plate was read monitoring fluorescence intensity on the BMG PHERAStar at room temperature, using fluorescence module 340 nm/440 nm.
as §1
% inhibition=((HC−LC)−(compound−LC)/(HC−LC))*100 where LC—low control=mean signal of […] or 100% inhibition of human kallikrein enzyme; HC—high control=mean signal of […]+Z-Gly-Pro-Arg-AMC peptide substrate with DMSO only.
as §2
Y=Bottom+(Top−Bottom)/(1+10^((log IC50−X)*HillSlope)) where Y is the % inhibition in the presence of X inhibitor concentration, Top=high control=mean signal of human kallikrein enzyme+Z-Gly-Pro-Arg-AMC peptide substrate with DMSO only; Bottom=low control−mean signal of no human kallikrein enzyme or 100% inhibition of human kallikrein enzyme; HillSlope−Hill coefficient; and IC50=concentration of compound with 50% inhibition in relation to top/high control.

SMILES	IC50 (Factor XIa) [nM]	IC50 (human plasma kallikrein; values in nM) [nM]	IC50 (human plasma kallikrein; unit μM) [nM]
O=c1cc(-c2c(-n3cnnn3)ccc(Cl)c2F)nc2n1C(c1nc(F)c(-c3ccnc(CO)c3F)[nH]1)CC21CC1 (racemic) [Example 69, 2′-(3-Chloro-2-fluoro-6-(1H-tetrazol-1-yl)phenyl)-6′-(4-fluoro-5-(3-fluoro-2-(hydroxymethyl)pyridin-4-yl)-1H-imidazol-2-yl)-6′,7′-dihydro-4′H-spiro[cyclopropane-1,8′-pyrrolo[1,2-a]pyrimidin]-4′-one]	19.4	118	–
C[C@@H]1C[C@@H](c2ncc(-c3ccnc(CO)c3F)[nH]2)n2c1cc(-c1c(-n3cnnn3)ccc(Cl)c1F)cc2=O (relative stereo) [Example 1, (1R*,3S*)-7-(3-Chloro-2-fluoro-6-(1H-tetrazol-1-yl)phenyl)-3-(5-(3-fluoro-2-(hydroxymethyl)pyridin-4-yl)-1H-imidazol-2-yl)-1-methyl-2,3-dihydroindolizin-5(1H)-one]	11	47	–
C[C@H]1C[C@@H](c2ncc(-c3ccnc(CO)c3F)[nH]2)n2c1cc(-c1c(-n3cnnn3)ccc(Cl)c1F)cc2=O (relative stereo) [Example 2, (1 S*,3S*)-7-(3-Chloro-2-fluoro-6-(1H-tetrazol-1-yl)phenyl)-3-(5-(3-fluoro-2-(hydroxymethyl)pyridin-4-yl)-1H-imidazol-2-yl)-1-methyl-2,3-dihydroindolizin-5(1H)-one]	22	170	–
C[C@H]1C[C@@H](c2ncc(-c3ccc(N)nn3)[nH]2)n2c1cc(-c1c(-n3cnnn3)ccc(Cl)c1F)cc2=O (relative stereo) [Example 10, (1 S*,3S*)-3-(5-(6-Aminopyridazin-3-yl)-1H-imidazol-2-yl)-7-(3-chloro-2-fluoro-6-(1H-tetrazol-1-yl)phenyl)-1-methyl-2,3-dihydroindolizin-5(1H)-one]	18.3	345	–
C[C@H]1C[C@H](c2ncc(-c3ccnc(C#N)c3)[nH]2)n2c1cc(-c1c(-n3cnnn3)ccc(Cl)c1F)cc2=O (relative stereo) [Example 30, 4-(2-((1S,3R)-7-(3-Chloro-2-fluoro-6-(1H-tetrazol-1-yl)phenyl)-1-methyl-5-oxo-1,2,3,5-tetrahydroindolizin-3-yl)-1H-imidazol-5-yl)picolinonitrile]	873	–	1200
Cc1c(-c2cnc([C@H]3C[C@H](C)c4cc(-c5c(-n6cnnn6)ccc(Cl)c5F)cc(=O)n43)[nH]2)ccnc1C#N (relative stereo) [Example 31, 4-(2-((1S*,3R*)-7-(3-Chloro-2-fluoro-6-(1H-tetrazol-1-yl)phenyl)-1-methyl-5-oxo-1,2,3,5-tetrahydroindolizin-3-yl)-1H-imidazol-5-yl)-3-methylpicolinonitrile]	250	635	–
C[C@H]1C[C@@H](c2ncc(-c3ccnc(C#N)c3)[nH]2)n2c1cc(-c1c(-n3cnnn3)ccc(Cl)c1F)cc2=O (relative stereo) [Example 32, 4-(2-((1S,3S)-7-(3-Chloro-2-fluoro-6-(1H-tetrazol-1-yl)phenyl)-1-methyl-5-oxo-1,2,3,5-tetrahydroindolizin-3-yl)-1_H-imidazol-5-yl)picolinonitrile]	11.2	90.7	–
Cc1c(-c2cnc([C@@H]3C[C@H](C)c4cc(-c5c(-n6cnnn6)ccc(Cl)c5F)cc(=O)n43)[nH]2)ccnc1C#N (relative stereo) [Example 33, 4-(2-((1S*,3S*)-7-(3-Chloro-2-fluoro-6-(1H-tetrazol-1-yl)phenyl)-1-methyl-5-oxo-1,2,3,5-tetrahydroindolizin-3-yl)-1H-imidazol-5-yl)-3-methylpicolinonitrile]	6.8	152	–
C[C@H]1C[C@@H](c2ncc(-c3ccc(N)nc3Cl)[nH]2)n2c1cc(-c1c(-n3cnnn3)ccc(Cl)c1F)cc2=O (relative stereo) [Example 57, (1*S,3*S)-3-(5-(6-Amino-2-chloropyridin-3-yl)-1H-imidazol-2-yl)-7-(3-chloro-2-fluoro-6-(1H-tetrazol-1-yl)phenyl)-1-methyl-2,3-dihydroindolizin-5(1H)-one]	–	–	3400
O=c1cc(-c2c(-n3cnnn3)ccc(Cl)c2F)nc2n1C(c1ncc(-c3ccnc(C4(O)CC4)c3F)[nH]1)CC21CC1 (single isomer, unassigned) [Example 75, (R*)-2′-(3-Chloro-2-fluoro-6-(1H-tetrazol-1-yl)phenyl)-6′-(5-(3-fluoro-2-(1-hydroxycyclopropyl)pyridin-4-yl)-1H-imidazol-2-yl)-6′,7′-dihydro-4′H-spiro[cyclopropane-1,8′-pyrrolo[1,2-a]pyrimidin]-4′-one]	–	97.6	–
C[C@H]1CC(c2ncc(-c3ccnc(CN)c3)[nH]2)n2c1cc(-c1c(-n3cnnn3)ccc(Cl)c1F)cc2=O (stereo in doubt) [Example 39, (1*S,3*S)-3-(5-(2-(Aminomethyl)pyridin-4-yl)-1H-imidazol-2-yl)-7-(3-chloro-2-fluoro-6-(1H-tetrazol-1-yl)phenyl)-1-methyl-2,3-dihydroindolizin-5(1H)-one]	–	–	> 10000
C[C@H]1C[C@@H](c2ncc(-c3ccc(N)nc3Cl)[nH]2)n2c1cc(-c1c(-n3cnnn3)ccc(Cl)c1F)cc2=O [Example 59, (1S,3S)-3-(5-(6-Amino-2-chloropyridin-3-yl)-1H-imidazol-2-yl)-7-(3-chloro-2-fluoro-6-(1H-tetrazol-1-yl)phenyl)-1-methyl-2,3-dihydroindolizin-5(1H)-one]	–	11.6	–
